{"source": "ChEMBL document CHEMBL1201861", "about": "“Genomics of Drug Sensitity in Cancer screening data, Wellcome Trust Sanger Institute”", "assay_in_all_cases": "cells", "key": {"SK-LMS-1": {"test_system": "SK-LMS-1", "assay_type": "functional, cell-based, Homo sapiens", "details": "Homo sapiens, SK-LMS-1"}, "BE-13": {"test_system": "BE-13", "assay_type": "functional, cell-based, Homo sapiens", "details": "Homo sapiens, BE-13", "description": "SANGER: Inhibition of human BE-13 cell growth in a cell viability assay."}, "ACN": {"test_system": "ACN", "assay_type": "functional, cell-based, Homo sapiens", "details": "Homo sapiens, ACN", "description": "SANGER: Inhibition of human ACN cell growth in a cell viability assay."}, "ES3": {"test_system": "ES3", "assay_type": "functional, cell-based, Homo sapiens", "details": "Homo sapiens, ES3", "description": "SANGER: Inhibition of human ES3 cell growth in a cell viability assay."}, "GI-1": {"test_system": "GI-1", "assay_type": "functional, cell-based, Homo sapiens", "details": "Homo sapiens, GI-1"}, "L-363": {"test_system": "L-363", "assay_type": "functional, cell-based, Homo sapiens", "details": "Homo sapiens, L-363"}, "MLMA": {"test_system": "MLMA", "assay_type": "functional, cell-based, Homo sapiens", "details": "Homo sapiens, MLMA", "description": "SANGER: Inhibition of human MLMA cell growth in a cell viability assay."}, "MZ7-mel": {"test_system": "MZ7-mel", "assay_type": "functional, cell-based, Homo sapiens", "details": "Homo sapiens, MZ7-mel", "description": "SANGER: Inhibition of human MZ7-mel cell growth in a cell viability assay."}, "MOLT-4": {"test_system": "MOLT-4", "assay_type": "functional, cell-based, Homo sapiens", "details": "Homo sapiens, MOLT-4", "description": "SANGER: Inhibition of human MOLT-4 cell growth in a cell viability assay."}, "NH-12": {"test_system": "NH-12", "assay_type": "functional, cell-based, Homo sapiens", "details": "Homo sapiens, NH-12", "description": "SANGER: Inhibition of human NH-12 cell growth in a cell viability assay."}, "SW684": {"test_system": "SW684", "assay_type": "functional, cell-based, Homo sapiens", "details": "Homo sapiens, SW684; read-out: IC50"}, "MFM-223": {"test_system": "MFM-223", "assay_type": "functional, cell-based, Homo sapiens", "details": "Homo sapiens, MFM-223", "description": "SANGER: Inhibition of human MFM-223 cell growth in a cell viability assay."}, "LAMA-84": {"test_system": "LAMA-84", "assay_type": "functional, cell-based, Homo sapiens", "details": "Homo sapiens, LAMA-84"}, "KG-1": {"test_system": "KG-1", "assay_type": "functional, cell-based, Homo sapiens", "details": "Homo sapiens, KG-1", "description": "SANGER: Inhibition of human KG-1 cell growth in a cell viability assay."}, "LOX IMVI": {"test_system": "LOX IMVI", "assay_type": "functional, cell-based, Homo sapiens", "details": "Homo sapiens, LOX IMVI", "description": "SANGER: Inhibition of human LOXIMVI cell growth in a cell viability assay."}, "SJSA-1": {"test_system": "SJSA-1", "assay_type": "functional, cell-based, Homo sapiens", "details": "Homo sapiens, SJSA-1", "description": "SANGER: Inhibition of human SJSA-1 cell growth in a cell viability assay."}, "SK-N-DZ": {"test_system": "SK-N-DZ", "assay_type": "functional, cell-based, Homo sapiens", "details": "Homo sapiens, SK-N-DZ; read-out: IC50", "description": "SANGER: Inhibition of human SK-N-DZ cell growth in a cell viability assay."}, "TE-1": {"test_system": "TE-1", "assay_type": "functional, cell-based, Homo sapiens", "details": "Homo sapiens, TE-1"}, "RH-1": {"test_system": "RH-1", "assay_type": "functional, cell-based, Homo sapiens", "details": "Homo sapiens, RH-1"}, "C2BBe1": {"test_system": "C2BBe1", "assay_type": "functional, cell-based, Homo sapiens", "details": "Homo sapiens, C2BBe1", "description": "SANGER: Inhibition of human C2BBe1 cell growth in a cell viability assay."}, "AM-38": {"test_system": "AM-38", "assay_type": "functional, cell-based, Homo sapiens", "details": "Homo sapiens, AM-38", "description": "SANGER: Inhibition of human AM-38 cell growth in a cell viability assay."}, "EW-18": {"test_system": "EW-18", "assay_type": "functional, cell-based, Homo sapiens", "details": "Homo sapiens, EW-18; read-out: IC50", "description": "SANGER: Inhibition of human EW-18 cell growth in a cell viability assay."}, "NCI-H226": {"test_system": "NCI-H226", "assay_type": "functional, cell-based, Homo sapiens", "details": "Homo sapiens, NCI-H226", "description": "SANGER: Inhibition of human NCI-H226 cell growth in a cell viability assay."}, "DSH1": {"test_system": "DSH1", "assay_type": "functional, cell-based", "details": "Homo sapiens", "description": "SANGER: Inhibition of human DSH1 cell growth in a cell viability assay."}, "IA-LM": {"test_system": "IA-LM", "assay_type": "functional, cell-based", "details": "Homo sapiens", "description": "SANGER: Inhibition of human IA-LM cell growth in a cell viability assay."}, "IST-MES1": {"test_system": "IST-MES1", "assay_type": "functional, cell-based, Homo sapiens", "details": "Homo sapiens, IST-MES1", "description": "SANGER: Inhibition of human IST-MES1 cell growth in a cell viability assay."}, "EOL1": {"test_system": "EOL1", "assay_type": "functional, cell-based, Homo sapiens", "details": "Homo sapiens, EOL1"}, "TE-5": {"test_system": "TE-5", "assay_type": "functional, cell-based, Homo sapiens", "details": "Homo sapiens, TE-5", "description": "SANGER: Inhibition of human TE-5 cell growth in a cell viability assay."}, "SW 962": {"test_system": "SW 962", "assay_type": "functional, cell-based, Homo sapiens", "details": "Homo sapiens, SW 962", "description": "SANGER: Inhibition of human SW962 cell growth in a cell viability assay."}, "ES1": {"test_system": "ES1", "assay_type": "functional, cell-based, Homo sapiens", "details": "Homo sapiens, ES1"}, "NCI-H23": {"test_system": "NCI-H23", "assay_type": "functional, cell-based, Homo sapiens", "details": "Homo sapiens, NCI-H23", "description": "SANGER: Inhibition of human NCI-H23 cell growth in a cell viability assay."}, "NCI-H1838": {"test_system": "NCI-H1838", "assay_type": "functional, cell-based, Homo sapiens", "details": "Homo sapiens, NCI-H1838", "description": "SANGER: Inhibition of human NCI-H1838 cell growth in a cell viability assay."}, "SHP77": {"test_system": "SHP77", "assay_type": "functional, cell-based, Homo sapiens, SHP-77", "details": "Homo sapiens, SHP77"}, "A253 cell line": {"test_system": "A253 cell line", "assay_type": "functional, cell-based, Homo sapiens", "details": "Homo sapiens, A253", "description": "SANGER: Inhibition of human A253 cell growth in a cell viability assay."}, "MPP-89": {"test_system": "MPP-89", "assay_type": "functional, cell-based, Homo sapiens", "details": "Homo sapiens, MPP-89", "description": "SANGER: Inhibition of human MPP-89 cell growth in a cell viability assay."}, "SF-126": {"test_system": "SF-126", "assay_type": "functional, cell-based, Homo sapiens", "details": "Homo sapiens, SF-126"}, "NB13": {"test_system": "NB13", "assay_type": "functional, cell-based, Homo sapiens", "details": "Homo sapiens, NB13", "description": "SANGER: Inhibition of human NB13 cell growth in a cell viability assay."}, "HAL-01": {"test_system": "HAL-01", "assay_type": "functional, cell-based, Homo sapiens", "details": "Homo sapiens, HAL-01", "description": "SANGER: Inhibition of human HAL-01 cell growth in a cell viability assay."}, "SK-PN-DW": {"test_system": "SK-PN-DW", "assay_type": "functional, cell-based, Homo sapiens", "details": "Homo sapiens, SK-PN-DW"}, "Lu-65": {"test_system": "Lu-65", "assay_type": "functional, cell-based, Homo sapiens", "details": "Homo sapiens, Lu-65", "description": "SANGER: Inhibition of human LU-65 cell growth in a cell viability assay."}, "KLE": {"test_system": "KLE", "assay_type": "functional, cell-based", "details": "Homo sapiens", "description": "SANGER: Inhibition of human KLE cell growth in a cell viability assay."}, "CCRF-CEM": {"test_system": "CCRF-CEM", "assay_type": "functional, cell-based, Homo sapiens", "details": "Homo sapiens, CCRF-CEM", "description": "SANGER: Inhibition of human CCRF-CEM cell growth in a cell viability assay."}, "KE-37": {"test_system": "KE-37", "assay_type": "functional, cell-based, Homo sapiens", "details": "Homo sapiens, KE-37", "description": "SANGER: Inhibition of human KE-37 cell growth in a cell viability assay."}, "KM12": {"test_system": "KM12", "assay_type": "functional, cell-based, Homo sapiens", "details": "Homo sapiens, KM12", "description": "SANGER: Inhibition of human KM12 cell growth in a cell viability assay."}, "QIMR-WIL": {"test_system": "QIMR-WIL", "assay_type": "functional, cell-based, Homo sapiens", "details": "Homo sapiens, QIMR-WIL", "description": "SANGER: Inhibition of human QIMR-WIL cell growth in a cell viability assay."}, "JAR": {"test_system": "JAR", "assay_type": "functional, cell-based, Homo sapiens", "details": "Homo sapiens, JAR", "description": "SANGER: Inhibition of human JAR cell growth in a cell viability assay."}, "LS-513": {"test_system": "LS-513", "assay_type": "functional, cell-based, Homo sapiens", "details": "Homo sapiens, LS-513", "description": "SANGER: Inhibition of human LS-513 cell growth in a cell viability assay."}, "BV-173": {"test_system": "BV-173", "assay_type": "functional, cell-based, Homo sapiens", "details": "Homo sapiens, BV-173", "description": "SANGER: Inhibition of human BV-173 cell growth in a cell viability assay."}, "A101D": {"test_system": "A101D", "assay_type": "functional, cell-based, Homo sapiens", "details": "Homo sapiens, A101D", "description": "SANGER: Inhibition of human A101D cell growth in a cell viability assay."}, "HD-MY-Z": {"test_system": "HD-MY-Z", "assay_type": "functional, cell-based, Homo sapiens", "details": "Homo sapiens, HD-MY-Z", "description": "SANGER: Inhibition of human HD-MY-Z cell growth in a cell viability assay."}}}
{"smiles": "C[C@@H](Oc1cc(-c2cnn(C3CCNCC3)c2)cnc1N)c1c(Cl)ccc(F)c1Cl", "note": "[CRIZOTINIB]", "values": [{"measurement": "IC50", "setting": "SK-LMS-1", "result": 1.77, "unit": "µM"}, {"measurement": "IC50", "setting": "BE-13", "result": "> 2", "unit": "µM"}, {"measurement": "IC50", "setting": "ACN", "result": "> 2", "unit": "µM"}, {"measurement": "IC50", "setting": "ES3", "result": "> 2", "unit": "µM"}, {"measurement": "IC50", "setting": "GI-1", "result": "> 2", "unit": "µM"}, {"measurement": "IC50", "setting": "L-363", "result": "> 2", "unit": "µM"}, {"measurement": "IC50", "setting": "MLMA", "result": "> 2", "unit": "µM"}, {"measurement": "IC50", "setting": "MZ7-mel", "result": "> 2", "unit": "µM"}, {"measurement": "IC50", "setting": "MOLT-4", "result": "> 2", "unit": "µM"}, {"measurement": "IC50", "setting": "NH-12", "result": "> 2", "unit": "µM"}, {"measurement": "IC50", "setting": "SW684", "result": "> 2", "unit": "µM"}, {"measurement": "IC50", "setting": "MFM-223", "result": "> 2", "unit": "µM"}, {"measurement": "IC50", "setting": "LAMA-84", "result": 1.38, "unit": "µM"}, {"measurement": "IC50", "setting": "KG-1", "result": "> 2", "unit": "µM"}, {"measurement": "IC50", "setting": "LOX IMVI", "result": "> 2", "unit": "µM"}, {"measurement": "IC50", "setting": "SJSA-1", "result": "> 2", "unit": "µM"}, {"measurement": "IC50", "setting": "SK-N-DZ", "result": "> 2", "unit": "µM"}, {"measurement": "IC50", "setting": "TE-1", "result": "> 2", "unit": "µM"}, {"measurement": "IC50", "setting": "RH-1", "result": "> 2", "unit": "µM"}, {"measurement": "IC50", "setting": "C2BBe1", "result": "> 2", "unit": "µM"}, {"measurement": "IC50", "setting": "AM-38", "result": "> 2", "unit": "µM"}, {"measurement": "IC50", "setting": "EW-18", "result": "> 2", "unit": "µM"}, {"measurement": "IC50", "setting": "NCI-H226", "result": "> 2", "unit": "µM"}, {"measurement": "IC50", "setting": "DSH1", "result": "> 2", "unit": "µM"}, {"measurement": "IC50", "setting": "IA-LM", "result": "> 2", "unit": "µM"}, {"measurement": "IC50", "setting": "IST-MES1", "result": "> 2", "unit": "µM"}, {"measurement": "IC50", "setting": "EOL1", "result": "> 2", "unit": "µM"}, {"measurement": "IC50", "setting": "TE-5", "result": "> 2", "unit": "µM"}, {"measurement": "IC50", "setting": "SW 962", "result": "> 2", "unit": "µM"}, {"measurement": "IC50", "setting": "ES1", "result": "> 2", "unit": "µM"}, {"measurement": "IC50", "setting": "NCI-H23", "result": "> 2", "unit": "µM"}, {"measurement": "IC50", "setting": "NCI-H1838", "result": "> 2", "unit": "µM"}, {"measurement": "IC50", "setting": "SHP77", "result": "> 2", "unit": "µM"}, {"measurement": "IC50", "setting": "A253 cell line", "result": "> 2", "unit": "µM"}, {"measurement": "IC50", "setting": "MPP-89", "result": "> 2", "unit": "µM"}, {"measurement": "IC50", "setting": "SF-126", "result": "> 2", "unit": "µM"}, {"measurement": "IC50", "setting": "NB13", "result": "> 2", "unit": "µM"}, {"measurement": "IC50", "setting": "HAL-01", "result": "> 2", "unit": "µM"}, {"measurement": "IC50", "setting": "SK-PN-DW", "result": "> 2", "unit": "µM"}, {"measurement": "IC50", "setting": "Lu-65", "result": "> 2", "unit": "µM"}, {"measurement": "IC50", "setting": "KLE", "result": "> 2", "unit": "µM"}, {"measurement": "IC50", "setting": "CCRF-CEM", "result": "> 2", "unit": "µM"}, {"measurement": "IC50", "setting": "KE-37", "result": "> 2", "unit": "µM"}, {"measurement": "IC50", "setting": "KM12", "result": 0.707, "unit": "µM"}, {"measurement": "IC50", "setting": "QIMR-WIL", "result": "> 2", "unit": "µM"}, {"measurement": "IC50", "setting": "JAR", "result": "> 2", "unit": "µM"}, {"measurement": "IC50", "setting": "LS-513", "result": "> 2", "unit": "µM"}, {"measurement": "IC50", "setting": "BV-173", "result": 1.06, "unit": "µM"}, {"measurement": "IC50", "setting": "A101D", "result": "> 2", "unit": "µM"}, {"measurement": "IC50", "setting": "HD-MY-Z", "result": "> 2", "unit": "µM"}]}
